This passage reports mutagenic call results from PubChem BioAssay AID1259407 (Chemical Carcinogenesis Research Information System (CCRIS), 2018).

The structures appear in SMILES notation. Calls of active or inactive are those of the source. How the calls were made is not given here.

The data set has as its system CCRIS mutagenicity, Ames/micronucleus/aberration tests. The data set can be described thus: CCRIS mutagenicity studies.
Where [1] appears, read: Test System: AMES SALMONELLA TYPHIMURIUM, Strain/Indicator: TA98, Metabolic Activation: NONE, Method: STANDARD PLATE.
[2] abbreviates: Test System: AMES SALMONELLA TYPHIMURIUM, Strain/Indicator: TA100, Metabolic Activation: NONE, Method: STANDARD PLATE.
The mark [3] stands for this setting: Test System: AMES SALMONELLA TYPHIMURIUM, Strain/Indicator: TA1535, Metabolic Activation: NONE, Method: STANDARD PLATE.

In the case of `FC(F)(F)C(F)(F)C(Cl)Cl`, the mutagenic call was “inactive; negative” under setting [1]; “inactive; negative” (Test System: AMES SALMONELLA TYPHIMURIUM, Strain/Indicator: TA98, Metabolic Activation: RAT LIVER S-9, PHENOBARBITAL, 5,6-BENZOFLAVONE, Method: STANDARD PLATE); “inactive; negative” under setting [2]; “inactive; negative” (Test System: AMES SALMONELLA TYPHIMURIUM, Strain/Indicator: TA100, Metabolic Activation: RAT LIVER S-9, PHENOBARBITAL, 5,6-BENZOFLAVONE, Method: STANDARD PLATE); “inactive; negative” under setting [3]; “inactive; negative” (Test System: AMES SALMONELLA TYPHIMURIUM, Strain/Indicator: TA1535, Metabolic Activation: RAT LIVER S-9, PHENOBARBITAL, 5,6-BENZOFLAVONE, Method: STANDARD PLATE). In addition, the mutagenic call reads like this: (Test System: AMES SALMONELLA TYPHIMURIUM, Strain/Indicator: TA1537, Metabolic Activation: NONE, Method: STANDARD PLATE) “inactive; negative”; (Test System: AMES SALMONELLA TYPHIMURIUM, Strain/Indicator: TA1537, Metabolic Activation: RAT LIVER S-9, PHENOBARBITAL, 5,6-BENZOFLAVONE, Method: STANDARD PLATE) “inactive; negative”; (Test System: ESCHERICHIA COLI, Strain/Indicator: WP2 UVR A, Metabolic Activation: NONE, Method: STANDARD PLATE) “inactive; negative”; (Test System: ESCHERICHIA COLI, Strain/Indicator: WP2 UVR A, Metabolic Activation: RAT LIVER S-9, PHENOBARBITAL, 5,6-BENZOFLAVONE, Method: STANDARD PLATE) “inactive; negative”; (Test System: UDS RAT HEPATOCYTES IN VIVO, Strain/Indicator: THYMIDINE INCORPORATION, Metabolic Activation: NONE, Method: INHALATION (6HR, NOSE-ONLY, 2-OR 16-HR HARVEST)/AUTORADIOGRAPHY) “inactive; negative”.

For the molecule `c1ccc(Cc2ccccc2OCC2CO2)cc1` (stereo not given), the mutagenic call under setting [2] is “active; positive” and the mutagenic call under setting [3] is “active; positive”.

For the molecule `COC(=O)c1ccccc1O`, the mutagenic call is, setting by setting: (Test System: AMES SALMONELLA TYPHIMURIUM, Strain/Indicator: TA98, Metabolic Activation: GUINEA PIG, LIVER, S-9, PCB, Method: PREINCUBATION) “inactive; negative”; (Test System: AMES SALMONELLA TYPHIMURIUM, Strain/Indicator: TA98, Metabolic Activation: HAMSTER, LIVER, S-9, AROCLOR 1254 (30%), Method: PREINCUBATION) “inactive; negative”; (Test System: AMES SALMONELLA TYPHIMURIUM, Strain/Indicator: TA98, Metabolic Activation: HAMSTER, LIVER, S-9, AROCLOR 1254 (50%), Method: PREINCUBATION) “inactive; negative”; (Test System: AMES SALMONELLA TYPHIMURIUM, Strain/Indicator: TA98, Metabolic Activation: HAMSTER, LIVER, S-9, PCB, Method: PREINCUBATION) “active; positive”; (Test System: AMES SALMONELLA TYPHIMURIUM, Strain/Indicator: TA98, Metabolic Activation: MOUSE, LIVER, S-9, PCB, Method: PREINCUBATION) “inactive; negative”; (Test System: AMES SALMONELLA TYPHIMURIUM, Strain/Indicator: TA98, Metabolic Activation: NONE, Method: PREINCUBATION) “inactive; negative”. In addition, the mutagenic call (Test System: AMES SALMONELLA TYPHIMURIUM, Strain/Indicator: TA98, Metabolic Activation: RAT, LIVER, S-9, AROCLOR 1254 (30%), Method: PREINCUBATION) is “inactive; negative”; the mutagenic call (Test System: AMES SALMONELLA TYPHIMURIUM, Strain/Indicator: TA98, Metabolic Activation: RAT, LIVER, S-9, AROCLOR 1254 (50%), Method: PREINCUBATION) is “inactive; negative”; the mutagenic call (Test System: AMES SALMONELLA TYPHIMURIUM, Strain/Indicator: TA98, Metabolic Activation: RAT, LIVER, S-9, PCB, Method: PREINCUBATION) is “inactive; negative”; the mutagenic call (Test System: AMES SALMONELLA TYPHIMURIUM, Strain/Indicator: TA100, Metabolic Activation: GUINEA PIG, LIVER, S-9, PCB, Method: PREINCUBATION) was “inactive; negative”; the mutagenic call (Test System: AMES SALMONELLA TYPHIMURIUM, Strain/Indicator: TA100, Metabolic Activation: HAMSTER, LIVER, S-9, AROCLOR 1254 (30%), Method: PREINCUBATION) is “inactive; negative”; the mutagenic call (Test System: AMES SALMONELLA TYPHIMURIUM, Strain/Indicator: TA100, Metabolic Activation: HAMSTER, LIVER, S-9, AROCLOR 1254 (50%), Method: PREINCUBATION) is “inactive; negative”. The mutagenic call by setting is: (Test System: AMES SALMONELLA TYPHIMURIUM, Strain/Indicator: TA100, Metabolic Activation: HAMSTER, LIVER, S-9, PCB, Method: PREINCUBATION) “active; positive”; (Test System: AMES SALMONELLA TYPHIMURIUM, Strain/Indicator: TA100, Metabolic Activation: MOUSE, LIVER, S-9, PCB, Method: PREINCUBATION) “inactive; negative”; (Test System: AMES SALMONELLA TYPHIMURIUM, Strain/Indicator: TA100, Metabolic Activation: NONE, Method: PREINCUBATION) “inactive; negative”; (Test System: AMES SALMONELLA TYPHIMURIUM, Strain/Indicator: TA100, Metabolic Activation: RAT, LIVER, S-9, AROCLOR 1254 (30%), Method: PREINCUBATION) “inactive; negative”; (Test System: AMES SALMONELLA TYPHIMURIUM, Strain/Indicator: TA100, Metabolic Activation: RAT, LIVER, S-9, AROCLOR 1254 (50%), Method: PREINCUBATION) “inactive; negative”; (Test System: AMES SALMONELLA TYPHIMURIUM, Strain/Indicator: TA100, Metabolic Activation: RAT, LIVER, S-9, PCB, Method: PREINCUBATION) “inactive; negative”. Further, the mutagenic call by setting is: (Test System: AMES SALMONELLA TYPHIMURIUM, Strain/Indicator: TA1535, Metabolic Activation: HAMSTER, LIVER, S-9, AROCLOR 1254 (30%), Method: PREINCUBATION) “inactive; negative”; (Test System: AMES SALMONELLA TYPHIMURIUM, Strain/Indicator: TA1535, Metabolic Activation: HAMSTER, LIVER, S-9, AROCLOR 1254 (50%), Method: PREINCUBATION) “inactive; negative”; (Test System: AMES SALMONELLA TYPHIMURIUM, Strain/Indicator: TA1535, Metabolic Activation: NONE, Method: PREINCUBATION) “inactive; negative”; (Test System: AMES SALMONELLA TYPHIMURIUM, Strain/Indicator: TA1535, Metabolic Activation: RAT, LIVER, S-9, AROCLOR 1254 (30%), Method: PREINCUBATION) “inactive; negative”; (Test System: AMES SALMONELLA TYPHIMURIUM, Strain/Indicator: TA1535, Metabolic Activation: RAT, LIVER, S-9, AROCLOR 1254 (50%), Method: PREINCUBATION) “inactive; negative”; (Test System: AMES SALMONELLA TYPHIMURIUM, Strain/Indicator: TA1537, Metabolic Activation: HAMSTER, LIVER, S-9, AROCLOR 1254 (30%), Method: PREINCUBATION) “inactive; negative”. Moreover, the mutagenic call is, setting by setting: (Test System: AMES SALMONELLA TYPHIMURIUM, Strain/Indicator: TA1537, Metabolic Activation: HAMSTER, LIVER, S-9, AROCLOR 1254 (50%), Method: PREINCUBATION) “inactive; negative”; (Test System: AMES SALMONELLA TYPHIMURIUM, Strain/Indicator: TA1537, Metabolic Activation: NONE, Method: PREINCUBATION) “inactive; negative”; (Test System: AMES SALMONELLA TYPHIMURIUM, Strain/Indicator: TA1537, Metabolic Activation: RAT, LIVER, S-9, AROCLOR 1254 (30%), Method: PREINCUBATION) “inactive; negative”; (Test System: AMES SALMONELLA TYPHIMURIUM, Strain/Indicator: TA1537, Metabolic Activation: RAT, LIVER, S-9, AROCLOR 1254 (50%), Method: PREINCUBATION) “inactive; negative”.

With `CC(C(=O)O)c1ccc2c(c1)[nH]c1ccc(Cl)cc12` (stereo not given), the mutagenic call was “inactive; negative” (Test System: AMES SALMONELLA TYPHIMURIUM, Strain/Indicator: TA98, Metabolic Activation: RAT, LIVER, S-9, PCB, Method: STANDARD PLATE); “inactive; negative” (Test System: AMES SALMONELLA TYPHIMURIUM, Strain/Indicator: TA100, Metabolic Activation: RAT, LIVER, S-9, PCB, Method: STANDARD PLATE); “inactive; negative” (Test System: AMES SALMONELLA TYPHIMURIUM, Strain/Indicator: TA1537, Metabolic Activation: RAT, LIVER, S-9, PCB, Method: STANDARD PLATE); “inactive; negative” (Test System: AMES SALMONELLA TYPHIMURIUM, Strain/Indicator: TA1538, Metabolic Activation: RAT, LIVER, S-9, PCB, Method: STANDARD PLATE); “inactive; negative” (Test System: E. COLI, Strain/Indicator: WP2 UVRA, Metabolic Activation: RAT, LIVER, S-9, PCB, Method: STANDARD PLATE).

Turning to `ClC(Cl)=C(Cl)c1cccc(Cl)c1Cl`, the mutagenic call under setting [1] was “inactive; negative”; the mutagenic call (Test System: AMES SALMONELLA TYPHIMURIUM, Strain/Indicator: TA98, Metabolic Activation: RAT, LIVER, S-9, AROCLOR 1254, Method: STANDARD PLATE) is “inactive; negative”; the mutagenic call under setting [2] was “inactive; negative”; the mutagenic call (Test System: AMES SALMONELLA TYPHIMURIUM, Strain/Indicator: TA100, Metabolic Activation: RAT, LIVER, S-9, AROCLOR 1254, Method: STANDARD PLATE) is “inactive; negative”.
